Results from PubChem BioAssay (NCI).
“And” between values parts separate entries of the source, which are not always exact repeats. Identical values can stand only once.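 Tested at 5 concentrations; 48 h exposure; 96-well plates; endpoints linearly interpolated, else capped at highest concentration. At the GI50, growth is halved. TGI: concentration producing complete growth inhibition.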

Experiments:
Assay in all cases: inhibition of tumour cell growth, NCI panel, 48 h
SF-539 CNS = test system: SF-539 CNS
SW-620 colon = test system: SW-620 colon
SR leukemia = test system: SR leukemia
NCI-H23 lung = test system: NCI-H23 lung
OVCAR-8 ovarian = test system: OVCAR-8 ovarian
TK-10 renal = test system: TK-10 renal
SN12C renal = test system: SN12C renal
OVCAR-4 ovarian = test system: OVCAR-4 ovarian
NCI/ADR-RES ovarian = test system: NCI/ADR-RES ovarian

Structure (SMILES)	TGI (SF-539 CNS)	TGI (SW-620 colon)	TGI (SR leukemia)	TGI (NCI-H23 lung)	TGI (OVCAR-8 ovarian)	TGI (TK-10 renal)	TGI (SN12C renal)	TGI (OVCAR-4 ovarian)	GI50 (SF-539 CNS)	GI50 (OVCAR-8 ovarian)	GI50 (SN12C renal)	GI50 (SW-620 colon)	GI50 (SR leukemia)	GI50 (NCI-H23 lung)	GI50 (TK-10 renal)	GI50 (NCI/ADR-RES ovarian)	TGI (NCI/ADR-RES ovarian)	GI50 (OVCAR-4 ovarian)
O=[N+]([O-])C(=C1c2ccccc2-c2ccccc21)[N+](=O)[O-]	> 100 µM	> 100 µM	> 100 µM	> 10 µM	> 100 µM	> 100 µM	> 100 µM	> 100 µM	–	–	–	–	–	–	–	–	–	–
COc1cc(Br)c(C=Nc2cccc3ccc(OS(=O)(=O)c4ccc([N+](=O)[O-])cc4)cc23)cc1OC	> 100 µM	> 100 µM	> 100 µM	> 100 µM	> 100 µM	–	> 100 µM	> 100 µM	–	–	–	–	–	–	–	–	–	–
Cc1ccccc1-c1cc(=O)c2cc(C)c(C)c(C(=O)O)c2o1	> 100 µM	> 100 µM	> 100 µM	> 100 µM	> 100 µM	> 100 µM	> 100 µM	> 100 µM	–	–	–	–	–	–	–	–	–	–
COc1ccc(-c2cc(-c3ccco3)c(C#N)c(=O)n2C2OC(COC(C)=O)C(OC(C)=O)C(OC(C)=O)C2OC(C)=O)cc1 (stereo unspecified)	> 100 µM and 23.9 µM	> 100 µM	> 100 µM	> 100 µM	> 100 µM and 40.4 µM	> 100 µM and 78.4 µM	> 100 µM and 55.2 µM	> 100 µM	> 100 µM and 11.7 µM	> 100 µM and 10.9 µM	> 100 µM and 18.9 µM	–	–	–	–	–	–	–
CC1(C)CCOC(Sc2ccccc2)C1 (stereo unspecified)	–	> 100 µM	> 100 µM	> 100 µM	> 100 µM	> 100 µM	> 100 µM	> 100 µM	–	–	–	–	–	–	–	–	–	–
O=S(=O)([O-])c1ccc(C=Nc2ccccc2)c([O-])c1.O=S(=O)([O-])c1ccc(C=Nc2ccccc2)c([O-])c1.[Co+2]	> 100 µM	> 100 µM	> 100 µM	> 100 µM	> 100 µM	> 100 µM	> 100 µM	–	32.6 µM	50.6 µM	18.8 µM	6.96 µM	24.9 µM	> 100 µM	> 100 µM	–	–	–
COC(=O)N1C=CC2=C(C)C3Nc4ccccc4C3C(C)=C2C1 (stereo unspecified)	17.2 µM	21.9 µM	–	> 100 µM	7.5 µM	7.24 µM	–	11.3 µM	–	–	–	–	–	–	–	–	–	–
CC[P+](C)(C)CC	> 100 µM	> 100 µM	> 100 µM	> 100 µM	> 100 µM	> 100 µM	> 100 µM	> 100 µM	–	–	–	–	–	–	–	–	–	–
CCOC(=O)C(c1ccsc1)P(=O)(OCC)OCC (stereo unspecified)	30.2 µM	30.8 µM	–	36.7 µM	43.3 µM	41 µM	30.1 µM	> 100 µM	–	–	–	–	–	–	–	–	–	–
Nc1ncnc2c1ncn2C1(CO)OC(CO)C(O)C1O (stereo unspecified)	–	> 100 µM	> 100 µM	> 100 µM	–	> 100 µM	> 100 µM	> 100 µM	–	–	–	–	–	–	–	–	–	–
Nc1ccccc1SC(CC(=O)c1ccccc1)c1c(Cl)cccc1Cl (stereo unspecified)	20.5 µM	5.21 µM	5.79 µM	–	9.61 µM	13.3 µM	11.5 µM	18.4 µM	6.17 µM	2.63 µM	2.94 µM	2.28 µM	1.45 µM	–	4.71 µM	3.72 µM	28.5 µM	4.84 µM
CC(C)CC1CC2C(=O)N(c3ccccc3)C(=O)C2c2[nH]c3ccccc3c21 (stereo unspecified)	99.4 µM	> 100 µM	76.4 µM	> 80.8 µM	51.6 µM	> 40.1 µM	> 43.8 µM	> 38.5 µM	–	–	–	–	–	–	–	–	–	–
CN1C=C(C(N)=O)Cc2ccsc21	> 100 µM	> 100 µM	> 100 µM	> 100 µM	> 100 µM	–	> 100 µM	> 100 µM	–	–	–	–	–	–	–	–	–	–
Oc1ccc(Br)cc1C=Nc1ccc(Oc2ccc(N=Cc3cc(Br)ccc3O)cc2)cc1	> 19.6 µM	> 19.6 µM	> 19.6 µM	> 19.6 µM	> 19.6 µM	> 19.6 µM	> 19.6 µM	> 19.6 µM	–	–	–	–	–	–	–	–	–	–
CN(C)c1ccc(-c2nc(N)nc3c2CCCC3)cc1	> 100 µM	> 100 µM	–	> 100 µM	> 100 µM	> 100 µM	> 100 µM	–	–	–	–	–	–	–	–	–	–	–
N/N=C1\C(=O)N(c2ccc(Cl)c(Cl)c2)C(=O)C1C(=O)Nc1ccc(Cl)c(Cl)c1 (stereo unspecified)	> 100 µM	> 100 µM	–	> 100 µM	> 100 µM	> 100 µM	> 100 µM	> 100 µM	–	–	–	–	–	–	–	–	–	–
Cc1ccc(C)c(NC(=O)C(=O)C(C2C(C)CC(=O)C2CC(=O)O)[N+](=O)[O-])c1 (stereo unspecified)	> 100 µM	> 100 µM	> 100 µM	> 100 µM	–	> 100 µM	> 100 µM	> 100 µM	–	–	–	–	–	–	–	–	–	–
